Test results as given in PubChem BioAssay (NCI).
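Interpolation was linear, between the two tested concentrations surrounding the appropriate level; five concentrations were tested over 48 hours in 96-well plates. GI50 = concentration required for 50% inhibition of growth. TGI marks complete inhibition of growth.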

How the values were obtained:
Assay in all cases: NCI tumour cell line growth inhibition, 48 h
HT29 colon = system: HT29 colon
BT-549 breast = system: BT-549 breast
OVCAR-3 ovarian = system: OVCAR-3 ovarian
LOX IMVI melanoma = system: LOX IMVI melanoma
SK-MEL-5 melanoma = system: SK-MEL-5 melanoma
U251 CNS = system: U251 CNS
SF-268 CNS = system: SF-268 CNS
CCRF-CEM leukemia = system: CCRF-CEM leukemia
MDA-MB-231 breast = system: MDA-MB-231 breast
MCF7 breast = system: MCF7 breast
PC-3 prostate = system: PC-3 prostate
KM12 colon = system: KM12 colon
M14 melanoma = system: M14 melanoma
SNB-75 CNS = system: SNB-75 CNS
HCT-116 colon = system: HCT-116 colon
OVCAR-4 ovarian = system: OVCAR-4 ovarian
SF-295 CNS = system: SF-295 CNS
NCI/ADR-RES ovarian = system: NCI/ADR-RES ovarian
NCI-H522 lung = system: NCI-H522 lung
SK-MEL-28 melanoma = system: SK-MEL-28 melanoma
MDA-MB-435 = system: MDA-MB-435
OVCAR-5 ovarian = system: OVCAR-5 ovarian
COLO 205 colon = system: COLO 205 colon
HOP-62 NSCLC = system: HOP-62 NSCLC
SK-OV-3 ovarian = system: SK-OV-3 ovarian
UO-31 renal = system: UO-31 renal
OVCAR-8 ovarian = system: OVCAR-8 ovarian
HCC-2998 colon = system: HCC-2998 colon
A498 renal = system: A498 renal
HCT-15 colon = system: HCT-15 colon
RXF 393 renal = system: RXF 393 renal
MALME-3M melanoma = system: MALME-3M melanoma
SK-MEL-2 melanoma = system: SK-MEL-2 melanoma
IGROV1 ovarian = system: IGROV1 ovarian
NCI-H23 lung = system: NCI-H23 lung
SF-539 CNS = system: SF-539 CNS
RPMI-8226 leukemia = system: RPMI-8226 leukemia
T-47D breast = system: T-47D breast
786-0 renal = system: 786-0 renal
UACC-62 melanoma = system: UACC-62 melanoma
SW-620 colon = system: SW-620 colon
SNB-19 CNS = system: SNB-19 CNS
SN12C renal = system: SN12C renal
UACC-257 melanoma = system: UACC-257 melanoma
NCI-H226 lung = system: NCI-H226 lung
TK-10 renal = system: TK-10 renal
HS 578T breast = system: HS 578T breast
HL-60(TB) leukemia = system: HL-60(TB) leukemia
NCI-H460 lung = system: NCI-H460 lung
K-562 leukemia = system: K-562 leukemia
MOLT-4 leukemia = system: MOLT-4 leukemia
CAKI-1 renal = system: CAKI-1 renal
DU-145 prostate = system: DU-145 prostate
ACHN renal = system: ACHN renal
A549 NSCLC = system: A549 NSCLC

Work on `Cn1cc(C2=C(n3ccc4ccccc43)C(=O)NC2=O)c2ccccc21` yielded a GI50 (HT29 colon) greater than 25 µM, a TGI (HT29 colon) greater than 25 µM and a GI50 (BT-549 breast) greater than 25 µM. The TGI (BT-549 breast) was greater than 25 µM, the GI50 (OVCAR-3 ovarian) was greater than 25 µM and the TGI (OVCAR-3 ovarian) was greater than 25 µM. It also gave a GI50 (LOX IMVI melanoma) greater than 25 µM, a TGI (LOX IMVI melanoma) greater than 25 µM and a GI50 (SK-MEL-5 melanoma) greater than 25 µM. It also gave a TGI (SK-MEL-5 melanoma) greater than 25 µM, a GI50 (U251 CNS) greater than 25 µM and a TGI (U251 CNS) greater than 25 µM. For the same molecule, the GI50 (SF-268 CNS) was greater than 25 µM, the TGI (SF-268 CNS) was greater than 25 µM and the GI50 (CCRF-CEM leukemia) was greater than 25 µM. For the same molecule, the TGI (CCRF-CEM leukemia) was greater than 25 µM, the GI50 (MDA-MB-231 breast) was greater than 25 µM and the TGI (MDA-MB-231 breast) was greater than 25 µM. The GI50 (MCF7 breast) was greater than 25 µM, the TGI (MCF7 breast) was greater than 25 µM and the GI50 (PC-3 prostate) was greater than 25 µM. For the same molecule, the TGI (PC-3 prostate) was greater than 25 µM, the GI50 (KM12 colon) was greater than 25 µM and the TGI (KM12 colon) was greater than 25 µM. It also gave a GI50 (M14 melanoma) greater than 25 µM, a TGI (M14 melanoma) greater than 25 µM and a GI50 (SNB-75 CNS) greater than 9.34 µM. The TGI (SNB-75 CNS) was greater than 25 µM, the GI50 (HCT-116 colon) was greater than 25 µM and the TGI (HCT-116 colon) was greater than 25 µM. It also gave a GI50 (OVCAR-4 ovarian) greater than 25 µM, a TGI (OVCAR-4 ovarian) greater than 25 µM and a GI50 (SF-295 CNS) greater than 25 µM. For the same molecule, the TGI (SF-295 CNS) was greater than 25 µM, the GI50 (NCI/ADR-RES ovarian) was greater than 25 µM and the TGI (NCI/ADR-RES ovarian) was greater than 25 µM. For the same molecule, the GI50 (NCI-H522 lung) was greater than 25 µM, the TGI (NCI-H522 lung) was greater than 25 µM and the GI50 (SK-MEL-28 melanoma) was greater than 25 µM. The TGI (SK-MEL-28 melanoma) was greater than 25 µM, the GI50 (MDA-MB-435) was greater than 25 µM and the TGI (MDA-MB-435) was greater than 25 µM. The GI50 (OVCAR-5 ovarian) was greater than 25 µM, the TGI (OVCAR-5 ovarian) was greater than 25 µM and the GI50 (COLO 205 colon) was greater than 25 µM. For the same molecule, the TGI (COLO 205 colon) was greater than 25 µM, the GI50 (HOP-62 NSCLC) was greater than 25 µM and the TGI (HOP-62 NSCLC) was greater than 25 µM. For the same molecule, the GI50 (SK-OV-3 ovarian) was greater than 25 µM, the TGI (SK-OV-3 ovarian) was greater than 25 µM and the GI50 (UO-31 renal) was greater than 21.6 µM. It also gave a TGI (UO-31 renal) greater than 25 µM, a GI50 (OVCAR-8 ovarian) greater than 25 µM and a TGI (OVCAR-8 ovarian) greater than 25 µM. It also gave a GI50 (HCC-2998 colon) greater than 25 µM, a TGI (HCC-2998 colon) greater than 25 µM and a GI50 (A498 renal) greater than 25 µM. The TGI (A498 renal) was greater than 25 µM, the GI50 (HCT-15 colon) was greater than 25 µM and the TGI (HCT-15 colon) was greater than 25 µM. It also gave a GI50 (RXF 393 renal) greater than 25 µM, a TGI (RXF 393 renal) greater than 25 µM and a GI50 (MALME-3M melanoma) greater than 25 µM. The TGI (MALME-3M melanoma) was greater than 25 µM, the GI50 (SK-MEL-2 melanoma) was greater than 25 µM and the TGI (SK-MEL-2 melanoma) was greater than 25 µM. For the same molecule, the GI50 (IGROV1 ovarian) was greater than 25 µM, the TGI (IGROV1 ovarian) was greater than 25 µM and the GI50 (NCI-H23 lung) was greater than 25 µM. The TGI (NCI-H23 lung) was greater than 25 µM, the GI50 (SF-539 CNS) was greater than 25 µM and the TGI (SF-539 CNS) was greater than 25 µM. The GI50 (RPMI-8226 leukemia) was greater than 25 µM, the TGI (RPMI-8226 leukemia) was greater than 25 µM and the GI50 (T-47D breast) was greater than 25 µM. For the same molecule, the TGI (T-47D breast) was greater than 25 µM, the GI50 (786-0 renal) was greater than 25 µM and the TGI (786-0 renal) was greater than 25 µM. The GI50 (UACC-62 melanoma) was greater than 25 µM, the TGI (UACC-62 melanoma) was greater than 25 µM and the GI50 (SW-620 colon) was greater than 25 µM. It also gave a TGI (SW-620 colon) greater than 25 µM, a GI50 (SNB-19 CNS) greater than 25 µM and a TGI (SNB-19 CNS) greater than 25 µM. The GI50 (SN12C renal) was greater than 25 µM, the TGI (SN12C renal) was greater than 25 µM and the GI50 (UACC-257 melanoma) was greater than 25 µM. It also gave a TGI (UACC-257 melanoma) greater than 25 µM, a GI50 (NCI-H226 lung) greater than 25 µM and a TGI (NCI-H226 lung) greater than 25 µM. It also gave a GI50 (TK-10 renal) greater than 25 µM, a TGI (TK-10 renal) greater than 25 µM and a GI50 (HS 578T breast) greater than 25 µM. The TGI (HS 578T breast) was greater than 25 µM, the GI50 (HL-60(TB) leukemia) was greater than 25 µM and the TGI (HL-60(TB) leukemia) was greater than 25 µM. It also gave a GI50 (NCI-H460 lung) greater than 25 µM, a TGI (NCI-H460 lung) greater than 25 µM and a GI50 (K-562 leukemia) greater than 25 µM. The TGI (K-562 leukemia) was greater than 25 µM, the GI50 (MOLT-4 leukemia) was greater than 25 µM and the TGI (MOLT-4 leukemia) was greater than 25 µM. For the same molecule, the GI50 (CAKI-1 renal) was greater than 25 µM, the TGI (CAKI-1 renal) was greater than 25 µM and the GI50 (DU-145 prostate) was greater than 25 µM. The TGI (DU-145 prostate) was greater than 25 µM, the GI50 (ACHN renal) was greater than 25 µM and the TGI (ACHN renal) was greater than 25 µM. It also gave a GI50 (A549 NSCLC) greater than 25 µM and a TGI (A549 NSCLC) greater than 25 µM.
